Laboratory results: patent US11236047B2 (ASTEX THERAPEUTICS LIMITED, priority 2017, dated 2022)
Read-outs that look alike come from different tables or passages of the source.

What was measured:
[1] = tested on: SN40R2 cells (p53 mutated, MDM2 amplified osteosarcoma); assay: Protocol A: SN40R2 growth inhibition (sulphorhodamine B); conditions: for inhibition at 50 µM: read-out: SN40R2 % inhibition at 50
SN40R2 cells = assay: Protocol B: SN40R2 CellTiter-Glo luminescent cell viability assay
MDM2-p53 interaction = MDM2-p53 interaction (Homo sapiens (Human), UniProt Q00987); conditions: for inhibition at 0.001 µM: read-out: MDM2 % inhibition @0.0010; for inhibition at 0.1 µM: read-out: MDM2 % inhibition @0.10; for inhibition at 0.03 µM: read-out: MDM2 % inhibition @0.030
Sequence of MDM2-p53 interaction (Q00987 whole entry): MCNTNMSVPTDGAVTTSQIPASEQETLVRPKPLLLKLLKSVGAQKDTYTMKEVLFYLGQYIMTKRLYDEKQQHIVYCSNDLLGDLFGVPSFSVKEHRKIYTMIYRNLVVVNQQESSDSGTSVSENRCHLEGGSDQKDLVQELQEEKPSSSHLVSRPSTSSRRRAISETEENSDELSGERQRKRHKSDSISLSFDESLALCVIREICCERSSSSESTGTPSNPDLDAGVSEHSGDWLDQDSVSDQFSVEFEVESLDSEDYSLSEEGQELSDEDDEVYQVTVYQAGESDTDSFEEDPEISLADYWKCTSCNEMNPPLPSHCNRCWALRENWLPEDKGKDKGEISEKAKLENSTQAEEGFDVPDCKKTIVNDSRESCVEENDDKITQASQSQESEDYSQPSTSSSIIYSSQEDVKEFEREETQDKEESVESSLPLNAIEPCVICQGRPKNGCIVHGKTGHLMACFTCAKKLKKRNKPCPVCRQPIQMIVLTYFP

SJSA-1 cells = assay: Protocol B: SJSA-1 CellTiter-Glo luminescent cell viability assay
[2] = read-out: SN40R2 % inhibition at 10, Protocol B, SN40R2, at 10 μM
[3] = read-out: SJSA1 IC50, Protocol B, SJSA-1
[4] = Homo sapiens, SJSA-1, read-out: SJSA1 IC50 (μM), Protocol B, SJSA-1
[5] = read-out: SN40R2 % inhibition at 10

inhibition at 0.001 µM (MDM2-p53 interaction) [%] | IC50 (SJSA-1 cells; [3]) [µM] | Structure (SMILES) | inhibition at 50 µM [1] [%] | inhibition at 10 µM (SN40R2 cells; [2]) [%] | also measured
59 | – | CCC(O)(c1cc(F)c2c(c1)C(=O)N(Cc1ccc(C#N)cn1)[C@@]2(OCCOC)c1ccc(Cl)cc1)c1cn(C)cn1 (single isomer, unassigned) [Example 430] | 33 | 4 | –
– | 2.8 | CCC(O)(c1cc(F)c2c(c1)C(=O)N(Cc1ccc(C#N)cn1)[C@@]2(O[C@H]1CCOC1)c1ccc(Cl)cc1)c1ccn(C)n1 (single isomer, unassigned) [Example 335] | – | 7 | inhibition at 0.1 µM (MDM2-p53 interaction): 51%
– | – | [2H]C([2H])(O)C1(C([2H])([2H])O[C@]2(c3ccc(Cl)cc3)c3c(F)cc(C(C)(C)O)cc3C(=O)N2Cc2ncc(C#N)cn2)CC1 [Example 513, 2-{[(1R)-1-(4-chlorophenyl)-7-fluoro-1-({1-[hydroxydideuteromethyl]cyclopropyl}dideuteromethoxy)-5-(2-hydroxypropan-2-yl)-3-oxo-2,3-dihydro-1H-isoindol-2-yl]methyl}pyrimidine-5-carbonitrile] | 19 | 4 | –
48 | 0.16 | CCC(O)(c1cc(F)c2c(c1)C(=O)N(Cc1ccc(C#N)nc1)[C@@]2(O[C@H]1CCOC1)c1ccc(Cl)cc1)c1cn(C)cn1 (single isomer, unassigned) [Example 431] | 39 | 5 | –
– | 2.2 | CCC(O)(CN1CCNCC1)c1cc(F)c2c(c1)C(=O)N(Cc1ncc(Cl)cn1)[C@@]2(OCC1(F)COC1)c1ccc(Cl)cc1 (single isomer, unassigned) [Example 538] | – | 43 | inhibition at 0.03 µM (MDM2-p53 interaction): 44%
79 | – | CCC(O)(c1cc(F)c2c(c1)C(=O)N(Cc1ncc(C#N)cn1)[C@@]2(OCCO)c1ccc(Cl)cc1)[C@H]1CC[C@H](O)CC1 (stereo partly drawn) [Example 510, 2-{[(1R)-1-(4-chlorophenyl)-7-fluoro-5-{1-hydroxy-1-[trans-4-hydroxycyclohexyl]propyl}-1-(2-hydroxyethoxy)-3-oxo-2,3-dihydro-1H-isoindol-2-yl]methyl}pyrimidine-5-carbonitrile] | 5 | 9 | –
– | 1.3 | CCC(O)(c1cc(F)c2c(c1)C(=O)N(Cc1ncc(Cl)cn1)[C@@]2(O[C@H]1CCOC1)c1ccc(Cl)cc1)c1cn(C)cn1 (single isomer, unassigned) [Example 474] | – | 12 | inhibition at 0.03 µM (MDM2-p53 interaction): 38%
74 | – | CN1CCC(C(C)(O)c2cc(F)c3c(c2)C(=O)N(Cc2ncc(Cl)cn2)[C@@]3(OCC2(CO)CC2)c2ccc(Cl)cc2)CC1 (single isomer, unassigned) [Example 554] | 46 | 11 | –
71 | 0.022 | CCC(O)(c1cc(F)c2c(c1)C(=O)N(Cc1ncc(Cl)cn1)[C@@]2(O[C@H]1CCOC1)c1ccc(Cl)cc1)c1cn(C)cn1 (single isomer, unassigned) [Example 475] | 46 | – | –
– | – | CCC(O)(c1cc(F)c2c(c1)C(=O)N(Cc1ncc(Cl)cc1O)[C@@]2(OCCO)c1ccc(Cl)cc1)c1cn(C)cn1 (stereo partly drawn) [Example 443, (3R)-2-[(5-chloro-3-hydroxypyridin-2-yl)methyl]-3-(4-chlorophenyl)-4-fluoro-6-[1-hydroxy-1-(1-methyl-1H-imidazol-4-yl)propyl]-3-(2-hydroxyethoxy)-2,3-dihydro-1H-isoindol-1-one] | – | – | IC50 ([1]; read-out: SN40R2 IC50 (μM)): 38 µM; IC50 (SJSA-1 cells; [4]): 0.093 µM; inhibition at 10 µM (SN40R2 cells; [5]): 3%
87 | – | CC[C@@](O)(c1cc(F)c2c(c1)C(=O)N(Cc1ncc(C#N)cn1)[C@@]2(O[C@H]1CCOC1)c1ccc(Cl)cc1)C1CCC(O)CC1 (stereo partly drawn) [Example 503, 2-{[(1R)-1-(4-chlorophenyl)-7-fluoro-5-{1-hydroxy-1-[trans-4-hydroxycyclohexyl]propyl}-3-oxo-1-[(3S)-oxolan-3-yloxy]-2,3-dihydro-1H-isoindol-2-yl]methyl}pyrimidine-5-carbonitrile] | – | 13 | IC50 (SJSA-1 cells; [4]): 0.011 µM
– | 1.8 | CCC(O)(c1cc(F)c2c(c1)C(=O)N(Cc1ncc(Cl)cn1)[C@@]2(O[C@H]1CCOC1)c1ccc(Cl)cc1)C1(F)CCNCC1 (single isomer, unassigned) [Example 540] | – | 62 | inhibition at 0.03 µM (MDM2-p53 interaction): 33%
80 | – | CCC(O)(c1cc(F)c2c(c1)C(=O)N(Cc1ncc(C#N)cn1)[C@@]2(OCC1(C#N)CC1)c1ccc(Cl)cc1)c1cn(C)cn1 (single isomer, unassigned) [Example 462] | 37 | 4 | –
– | – | CC(C)(O)c1cc(F)c2c(c1)C(=O)N(Cc1ccc(Cl)cc1)[C@@]2(OCC1(CO)CC1)c1ccc(Cl)cc1 [Example 2, (3R)-3-(4-chlorophenyl)-2-[(4-chlorophenyl)methyl]-4-fluoro-3-{[1-(hydroxymethyl)cyclopropyl]methoxy}-6-(2-hydroxypropan-2-yl)-2,3-dihydro-1H-isoindol-1-one] | – | – | IC50 ([1]; 72 h, read-out: SN40R2 IC50 (μM) (Protocol A)): 17 µM
82 | 0.01 | CCC(O)(c1cc(F)c2c(c1)C(=O)N(Cc1ncc(Cl)cn1)[C@@]2(OCCO)c1ccc(Cl)cc1)[C@H]1CC[C@H](O)CC1 (single isomer, unassigned) [Example 517] | 26 | – | –
– | 0.6 | CCC(O)(c1cc(F)c2c(c1)C(=O)N(Cc1ncc(Cl)cn1)[C@@]2(OCC1(CO)CC1)c1ccc(Cl)cc1)c1cn(C)cn1 (single isomer, unassigned) [Example 476] | – | 4 | inhibition at 0.03 µM (MDM2-p53 interaction): 51%
64 | 0.13 | CCC(O)(CN1CCNCC1)c1cc(F)c2c(c1)C(=O)N(Cc1ncc(Cl)cn1)[C@@]2(OCC1(C#N)CC1)c1ccc(Cl)cc1 (single isomer, unassigned) [Example 536] | – | 46 | –
81 | – | CC[C@@](O)(c1cc(F)c2c(c1)C(=O)N(Cc1ncc(C#N)cn1)[C@@]2(O[C@H]1CCOC1)c1ccc(Cl)cc1)C1CCN(C)CC1 [Example 557, 2-{[(1R)-1-(4-chlorophenyl)-7-fluoro-5-[(1S)-1-hydroxy-1-(1-methylpiperidin-4-yl)propyl]-3-oxo-1-[(3S)-oxolan-3-yloxy]-2,3-dihydro-1H-isoindol-2-yl]methyl}pyrimidine-5-carbonitrile] | – | 6 | inhibition at 10 µM [1, 5]: 37%
76 | – | CC[C@@](O)(c1cc(F)c2c(c1)C(=O)N(Cc1ncc(Cl)cc1O)[C@@]2(O[C@H]1CCOC1)c1ccc(Cl)cc1)C1CCN(C)CC1 [Example 568, 2-[(5-chloro-3-hydroxypyridin-2-yl)methyl]-3-(4-chlorophenyl)-4-fluoro-6-[(1S)-1-hydroxy-1-(1-methylpiperidin-4-yl)propyl]-3-[(3S)-oxolan-3-yloxy]-2,3-dihydro-1H-isoindol-1-one] | – | 36 | –
– | – | CC[C@](O)(c1cc(F)c2c(c1)C(=O)N(Cc1ncc(C#N)cn1)[C@@]2(O[C@H]1CCOC1)c1ccc(Cl)cc1)C1(F)CCOCC1 [Example 508, 2-{[(1R)-1-(4-chlorophenyl)-7-fluoro-5-[(1S)-1-(4-fluorooxan-4-yl)-1-hydroxypropyl]-3-oxo-1-[(3S)-oxolan-3-yloxy]-2,3-dihydro-1H-isoindol-2-yl]methyl}pyrimidine-5-carbonitrile] | – | 9 | inhibition at 10 µM (SJSA-1 cells; Homo sapiens, SJSA-1, read-out: SJSA1 % inhibition at 10): 11%; inhibition at 0.1 µM (MDM2-p53 interaction): 17%
59 | 0.051 | CCC(O)(c1cc(F)c2c(c1)C(=O)N(Cc1ncc(Cl)cn1)[C@@]2(OCC1(C(N)=O)CC1)c1ccc(Cl)cc1)c1cn(C)cn1 (stereo partly drawn) [Example 486, 1-({[(1R)-1-(4-chlorophenyl)-2-[(5-chloropyrimidin-2-yl)methyl]-7-fluoro-5-[1-hydroxy-1-(1-methyl-1H-imidazol-4-yl)propyl]-3-oxo-2,3-dihydro-1H-isoindol-1-yl]oxy}methyl)cyclopropane-1-carboxamide] | 10 | – | –
85 | – | CCC(O)(c1cc(F)c2c(c1)C(=O)N(Cc1ccc(Cl)cn1)[C@@]2(OC[C@@H](C)O)c1ccc(Cl)cc1)C1(F)CCNCC1 (single isomer, unassigned) [Example 549] | – | 33 | –
82 | – | CCC(O)(c1cc(F)c2c(c1)C(=O)N(Cc1ncc(C#N)cn1)[C@@]2(O[C@H]1CCOC1)c1ccc(Cl)cc1)C1(F)CCNCC1 (single isomer, unassigned) [Example 547] | – | 4 | –
77 | – | CCC(O)(c1cc(F)c2c(c1)C(=O)N(Cc1ncc(Cl)cn1)[C@@]2(O[C@H]1CCOC1)c1ccc(Cl)cc1)C1(F)CCN(C)CC1 (single isomer, unassigned) [Example 571] | – | 38 | –

Structure (SMILES) | inhibition at 0.001 µM (MDM2-p53 interaction) [%] | IC50 (SJSA-1 cells; [3]) [µM] | inhibition at 50 µM [1] [%] | inhibition at 10 µM (SN40R2 cells; [2]) [%] | also measured
CCC(O)(c1cc(F)c2c(c1)C(=O)N(Cc1ccc(C#N)cn1)[C@@]2(O[C@H]1CCOC1)c1ccc(Cl)cc1)C1(F)CCOCC1 (stereo partly drawn) [Example 446, 6-{[(1R)-1-(4-chlorophenyl)-7-fluoro-5-[1-(4-fluorooxan-4-yl)-1-hydroxypropyl]-3-oxo-1-[(3S)-oxolan-3-yloxy]-2,3-dihydro-1H-isoindol-2-yl]methyl}pyridine-3-carbonitrile] | – | 0.023 | – | – | IC50 ([1]; read-out: SN40R2 IC50 (μM)): 29 µM
